Entries after “also recorded” stand apart in the source; their conditions may differ.
Tests used:
sota mutant DHS enzymes = test: DHS enzyme assay, sota mutant enzymes compared with corresponding WT enzymes; format: biochemical, Arabidopsis thaliana
Experimental: To generate recombinant DHS proteins the pET28a vectors carrying the A. thaliana DHS1 (AtDHS1), AtDHS2, or AtDHS3 WT sequence without the predicted plastid transit peptide (amino acid residues; 49-525, 34-507, and 52-527, respectively) were expressed in E. coli Rosetta-2 cells and purified using Ni-affinity chromatography, exactly as was conducted previously (9). To generate DHS proteins with individual sota mutations via site-directed mutagenesis, these pET28a plasmid templates were diluted by 500-fold, mixed with 0.04 U/μL Phusion DNA polymerase (Thermo Scientific), 0.2 mM deoxynucleoside triphosphates (dNTPs), 1× Phusion reaction buffer (Thermo Scientific), and 0.5 μM forward and reverse mutagenesis primers (Table 10). The PCR reaction was run using the following protocol: 98° C. for 30 s followed by 20 cycles of 10 s at 98° C., 20 s at 70° C., 4.5 min at 72° C. with a final extension at 72° C. for 10 min. […]
The DHS enzyme assays were conducted using the colorimetric method that we recently described (9). […] The absorbance of the pink supernatant was read at 549 nm with the microplate reader (Infinite 200 PRO, TECAN) to calculate DAHP production with the molar extinction coefficient at 549 nm (ε=549 nm) of 4.5×10^4 M^−1 cm^−1. […]

DHS1^WT = target: T1, DHS1^WT (Arabidopsis thaliana, UniProt P29976); details: AAAs, chorismate, caffeate: from Yokoyama et al., Plant Cell, 2021; cited from earlier work
T1 construct: without the predicted plastid transit peptide (amino acid residues; 49-525, 34-507, and 52-527, respectively); made in house; host or cells: E. coli Rosetta-2

[1] = target: T2, Arabidopsis thaliana DHS2 (SEQ ID NO:2) variant DHS2^A4 (sotaA4), G222S (Arabidopsis thaliana, UniProt Q00218, G222S); test: Differential scanning fluorimetry protein-ligand affinity analysis, DHS2 sotaA4; format: binding; details: ligand at 1 mM
T2 construct: without the predicted plastid transit peptide (amino acid residues; 49-525, 34-507, and 52-527, respectively); made in house; host or cells: E. coli
Experimental: (A) Simplified pathway map of AAAs and AAA-derived metabolites used in the effector screening. […] Data are means±SEM (n=3 independent assays).
(§1) To examine the impact of the sota mutations on the interaction between DHS and AAA effectors (FIG. 22), a differential scanning fluorimetry (DSF) analysis (48) was conducted using the recombinant DHS2^WT and DHS2^A4 proteins. […] The fluorescence signal was monitored during the stepwise increase in temperature (1° C. per minute from 25° C. to 95° C.). The Tm was calculated by nonlinear regression analysis using the Boltzmann sigmoidal equation (48).

DHS2^A4 = target: T3, DHS2^A4 (Arabidopsis thaliana, UniProt Q00218, G222S); test: Differential scanning fluorimetry (DSF) protein-ligand affinity analysis, DHS2^A4; format: binding; details: ligand at 1 mM
T3 construct: without the predicted plastid transit peptide (amino acid residues; 49-525, 34-507, and 52-527, respectively); made in house; host or cells: E. coli
Experimental: as §1

DHS3^WT = details: AAAs: from Yokoyama et al., Plant Cell, 2021; cited from earlier work
DHS2^WT = target: T4, DHS2^WT (Arabidopsis thaliana, UniProt Q00218); test: Differential scanning fluorimetry (DSF) protein-ligand affinity analysis, DHS2^WT; format: binding; details: ligand at 1 mM
T4 construct: without the predicted plastid transit peptide (amino acid residues; 49-525, 34-507, and 52-527, respectively); made in house; host or cells: E. coli Rosetta-2
Experimental: as §1

[2] = target: T5, Arabidopsis thaliana DHS2 (AtDHS2), wild type (DHS2^WT), SEQ ID NO:2 (Arabidopsis thaliana, UniProt Q00218); details: reference 9; cited from earlier work
T5 construct: without the predicted plastid transit peptide (amino acid residues; 49-525, 34-507, and 52-527, respectively); made in house; host or cells: E. coli Rosetta-2
T5 sequence (Q00218 34-507): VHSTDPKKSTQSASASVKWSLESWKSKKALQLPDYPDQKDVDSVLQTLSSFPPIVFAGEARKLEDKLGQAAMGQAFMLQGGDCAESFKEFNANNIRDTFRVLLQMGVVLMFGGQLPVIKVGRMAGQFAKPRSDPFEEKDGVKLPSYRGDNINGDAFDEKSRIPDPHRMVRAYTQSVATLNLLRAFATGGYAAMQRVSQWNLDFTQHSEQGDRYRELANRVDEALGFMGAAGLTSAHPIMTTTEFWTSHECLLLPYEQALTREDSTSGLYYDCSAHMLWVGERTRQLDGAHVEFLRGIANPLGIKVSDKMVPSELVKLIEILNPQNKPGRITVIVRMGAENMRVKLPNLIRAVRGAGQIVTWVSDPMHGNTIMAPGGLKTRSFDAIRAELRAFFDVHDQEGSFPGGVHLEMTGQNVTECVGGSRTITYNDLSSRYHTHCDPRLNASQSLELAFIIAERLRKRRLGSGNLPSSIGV

T3 sequence (Q00218 34-507 G222S): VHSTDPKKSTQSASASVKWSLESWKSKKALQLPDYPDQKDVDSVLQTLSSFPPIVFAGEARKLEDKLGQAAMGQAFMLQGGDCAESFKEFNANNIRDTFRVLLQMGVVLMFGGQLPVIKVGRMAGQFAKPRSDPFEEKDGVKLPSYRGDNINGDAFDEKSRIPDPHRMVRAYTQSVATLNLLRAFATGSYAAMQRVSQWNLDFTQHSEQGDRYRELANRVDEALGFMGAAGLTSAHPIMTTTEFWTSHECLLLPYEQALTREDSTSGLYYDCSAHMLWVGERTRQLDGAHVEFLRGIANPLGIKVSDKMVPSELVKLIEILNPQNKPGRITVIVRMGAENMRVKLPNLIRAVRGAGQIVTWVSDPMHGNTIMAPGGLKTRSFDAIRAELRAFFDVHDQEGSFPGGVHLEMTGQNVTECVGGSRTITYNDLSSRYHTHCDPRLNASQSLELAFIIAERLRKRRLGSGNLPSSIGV
T2 sequence (Q00218 34-507 G222S): as above
T1 sequence (P29976 49-525): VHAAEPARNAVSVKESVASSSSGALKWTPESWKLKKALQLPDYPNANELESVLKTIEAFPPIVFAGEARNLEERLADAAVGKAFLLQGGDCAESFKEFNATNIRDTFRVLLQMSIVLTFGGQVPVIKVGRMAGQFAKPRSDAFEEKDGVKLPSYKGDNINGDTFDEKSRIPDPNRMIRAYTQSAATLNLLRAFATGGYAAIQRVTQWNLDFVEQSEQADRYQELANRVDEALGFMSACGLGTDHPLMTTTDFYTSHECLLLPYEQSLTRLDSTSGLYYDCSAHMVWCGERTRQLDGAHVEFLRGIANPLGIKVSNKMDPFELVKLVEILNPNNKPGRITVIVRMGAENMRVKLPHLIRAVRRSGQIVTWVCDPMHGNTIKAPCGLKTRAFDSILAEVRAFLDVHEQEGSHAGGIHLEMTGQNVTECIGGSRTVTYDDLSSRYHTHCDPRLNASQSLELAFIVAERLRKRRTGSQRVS
T4 sequence (Q00218 34-507): as the sequence (Q00218 34-507) above

Row | Compound | increase of IC50 in sota mutant enzymes over corresponding WT enzymes (sota mutant DHS enzymes) | IC50 of effector molecule on DHS1^WT (DHS1^WT) | binding (DSF) [1] | effect on melting temperature (Tm) / binding of DHS2^A4 (DHS2^A4) | IC50 of effector molecule on DHS3^WT (DHS3^WT) | effect on melting temperature (Tm) of DHS2^WT (DHS2^WT) | inhibition of DHS2 [2]
1 | O=C(O)C(=O)Cc1ccc(O)cc1 [HPP, 4-Hydroxyphenylpyruvate] | up to 7 fold |  |  |  |  |  | 
2 | N[C@@H](Cc1c[nH]c2ccccc12)C(=O)O [Trp, tryptophan] |  | Not inhibited | still binds Tyr and Trp | still binds; also recorded: significantly increased the Tm | Not inhibited | significantly increased the Tm | inhibit Arabidopsis DHS2
